Laboratory results from article PMC9370761, “Anti-Inflammatory Effects of Auranamide and Patriscabratine—Mechanisms and In Silico Studies” (Molecules, 2022).

Columns and labels:
IL-1β = IL-1β ELISA in LPSEc challenged RAW 264.7 cells; type: cell-based, murine; settings: 10 μM; vs untreated cells; LPSEc alone 4.56 ± 0.13
Protocol: (§1) The anti-inflammatory activity of the test compounds was assessed in E. coli lipopolysaccharide (LPSEc)-induced inflammation in RAW 264.7 cells. Cells (5 × 10^5 cells/well) were incubated for 24 h in a 24-well plate. Then, the cells were challenged with LPSEc (100 ng/mL) for 4 h. The test compounds (10, 1, 0.1, 0.01 and 0.001 µM) or positive control (dimethyl fumarate, 10 μM) were then added and incubated for 24 h. The levels of NO production and pro-inflammatory cytokines (IL-1β, IL-6, IFN-γ and TNF-α) were determined using the supernatant solution. The cell pellet was used to measure the levels of COX-2, NF-κB p65, NRF2, and HO-1.
(§2) Single-Analyte ELISArray kits were used to quantify the pro-inflammatory cytokines (IL-1β, IL-6, IFN-γ and TNF-α) in the cell supernatant following the manufacturer’s instructions. The standard protein (50 μL) or test sample solutions (50 μL) were added to a well (in duplicate) and incubated for 2 h at room temperature. The contents in the well were washed with wash buffer, and then 100 µL of biotinylated detection antibody solution was added and incubated for 1 h at room temperature. […] The optical density was measured at 450/570 nm using a Spectramax microplate reader M3 (Molecular Devices, LLC., San Jose, CA 95134, USA). The levels of pro-inflammatory cytokines (in pg/mL) in test samples were calculated using the standard curve. […]

IFN-γ = IFN-γ ELISA in LPSEc challenged RAW 264.7 cells; type: cell-based, murine; settings: 10 μM; vs untreated cells; LPSEc alone 8.62 ± 0.26
Protocol: as §1, §2

Hepa-1c1c7 cells = assay: MTT cytotoxicity on Hepa-1c1c7 cells; type: cell-based, murine; settings: MTT assay, 24 h
Protocol: (§3) The cytotoxicity of the test compounds on RAW 264.7 and Hepa-1c1c7 cells was assessed using Vybrant® MTT Cell Proliferation Assay Kit following the manufacturer’s protocol. The cells were seeded at 5 × 10^5 cells/well and incubated for 24 h. Then, various concentrations (100 to 0.01 μM) of the test compounds were added and incubated for a further 24 h. The cell supernatant solution was replaced with the MTT assay solution and incubated for 4 h. The formazan crystals were dissolved in DMSO, and the optical density (OD) of the solution was measured at 570 nm (reference wavelength 630 nm) using Spectramax M3 microplate reader (Molecular Devices, LLC., San Jose, CA 95134, USA). The cell viability was calculated using the following formula, and the results are presented as mean ± SD. Percent cell viability %=ODtreated cells−ODblank/ODuntreated cells− ODblank×100%

COX-2 = COX-2 ELISA, cytoplasmic extract of LPSEc-stimulated RAW 264.7 cells; type: cell-based, murine; settings: 10 μM; LPSEc control 8.09 ± 0.08
Protocol: as §1
(§4) The COX-2 level was estimated in the cytoplasmic extract, whereas NF-κB p65, NRF-2 and HO-1 levels were estimated in nuclear extract. The nuclear extraction kit was used to separate the cytoplasm from the nucleus following the manufacturer’s instructions. The cell pellet was incubated in 100 µL of pre-extraction buffer on ice for 10 min, vortexed, and centrifuged. The supernatant cytoplasmic extract was collected. […] The protein concentration in the extracts was determined using Bradford’s reagent. […] The levels were measured in triplicate. The absorbance was measured using a Spectramax M3 microplate reader (Molecular Devices, LLC., San Jose, CA 95134, USA). […]

[1] = system: nitric oxide (NO) production; assay: NO production (Griess assay) in LPSEc-stimulated RAW264.7 cells; type: cell-based, murine; settings: for reduced the NO production by: 10 μM, LPSEc-stimulated NO = 100%; for IC50: Mus musculus, 100 ng/mL LPSEc, RAW264.7, 24 h, read-out: IC50 (concentration required to reduce the NO production by 50%)
Protocol: The anti-inflammatory activity of the compounds was tested using Escherichia coli lipopolysaccharide (LPSEc) stimulated RAW264.7 cells. Nitric oxide (NO) is a classical marker used to measure inflammation. The Griess assay was used to determine NO production. The cells were stimulated with 100 ng/mL LPSEc and the NO produced was considered to be at 100%. The anti-inflammatory effect of the compounds was assessed by adding the compounds (10, 1, 0.1, 0.01, and 0.001 µM) to the LPSEc stimulated cells. The efficacy of the compounds was assessed by calculating their ability to reduce the LPSEc stimulated NO production. Dimethyl fumarate was used as a positive control, and 0.1% DMSO was used as a negative control. […] The anti-inflammatory effect was not observed at concentrations of less than 0.1 μM.
as §1
LPSEc activates inducible nitric oxide synthase (iNOS) in RAW 264.7 cells and produces nitric oxide (NO), an important mediator of inflammation. The NO content in the supernatant solution was measured using the Griess assay following the manufacturer’s instructions. The optical density (OD) was measured at 540 nm using a Spectramax M3 microplate reader (Molecular Devices, LLC., San Jose, CA 95134, USA). The formula provided below was used to calculate the percentage of NO production. Percent NO production=ODtreated cells− ODblank/ODuntreated cells− ODblank×100%
The activity of the test compounds was tested in triplicate on each plate. The results are presented as mean ± SD. Treatment was performed with either LPSEc alone or LPSEc and test compounds were designated as treated cells. RAW264.7 cells treated with vehicle (0.1% DMSO) were designated as untreated cells.

TNF-α = TNF-α ELISA in LPSEc challenged RAW 264.7 cells; type: cell-based, murine; settings: 10 μM; vs untreated cells; LPSEc alone 4.33 ± 0.17
Protocol: as §1, §2

NRF2 = NRF2 ELISA, nuclear extract of RAW 264.7 cells; type: cell-based, murine; settings: 10 μM, vs negative control
Protocol: (§5) The NRF2 activation is associated with increased NQO1 activity and an increased concentration of NRF2 and HO-1 in the nucleus. The protective role of NRF2/HO-1 in inflammatory diseases is well documented. Therefore, the NRF2 and HO-1 levels in nuclear extracts of the RAW 264.7 cells were determined using ELISA kits and expressed as fold changes with reference to the negative control. The effect of test compounds on NQO1 activity was determined using the reported method in murine hepatoma cells (Hepa-1c1c7). Dimethyl fumarate was used as a positive control, and 0.1% DMSO was used as a negative control. […]
(§6) The anti-inflammatory activity of the test compounds was assessed in E. coli lipopolysaccharide (LPSEc)-induced inflammation in RAW 264.7 cells. […] The levels of NO production and pro-inflammatory cytokines (IL-1β, IL-6, IFN-γ and TNF-α) were determined using the supernatant solution. […]
(§7) The COX-2 level was estimated in the cytoplasmic extract, whereas NF-κB p65, NRF-2 and HO-1 levels were estimated in nuclear extract. […] The protein concentration in the extracts was determined using Bradford’s reagent. […] The levels were measured in triplicate. The absorbance was measured using a Spectramax M3 microplate reader (Molecular Devices, LLC., San Jose, CA 95134, USA). […]

IL-6 = IL-6 ELISA in LPSEc challenged RAW 264.7 cells; type: cell-based, murine; settings: 10 μM; vs untreated cells; LPSEc alone 6.91 ± 0.05
Protocol: as §1, §2

[2] = Metabolic stability in rat liver microsomes; type: in vitro ADME; settings: 37 °C; for Clint: 0.5 µM; for half-life at 0.5 µM: read-out: Half-life (T1/2)
Protocol: (§8) Metabolic stability is an important parameter in the drug discovery pipeline. The metabolic stability of test compounds was evaluated in vitro using human, rat and mouse liver microsomes. The metabolic equation below determines the test compounds’ half-life (T1/2) and intrinsic clearance (Clint). Compound+ NADPH + H^++ O2 → oxidized analyte + NADP^++ H2O
(§9) The metabolic stability of the test compounds in human, rat, and mouse liver microsomes was determined using the method described in our previous work. Five microlitres of auranamide or patriscabratine (0.5 µM) were incubated in a reaction mixture at 37 °C for 0, 3, 6, 15, 30, 45 and 60 min. The concentration of test compounds in the reaction mixture was quantified using Agilent 1290 coupled with Q-TOF. The experiment was carried out in triplicate. The concentration versus time plot calculated the elimination rate constant (Kel). The below formulae were used to calculate the intrinsic clearance (Clint) and half-life (T1/2). The results are expressed as mean ± standard deviation from three experiments. Clint= Kel/0.5 ×52.5 T1/2= 0.693/Kel

HO-1 = HO-1 ELISA, nuclear extract of RAW 264.7 cells; type: cell-based, murine; settings: 10 μM, vs negative control
Protocol: as §5, §6, §7

NQO1 = NQO1 activity, Prochaska microtiter plate bioassay in Hepa-1c1c7 cells; type: cell-based, murine; settings: 48 h
Protocol: The NRF2 activation is associated with increased NQO1 activity and an increased concentration of NRF2 and HO-1 in the nucleus. The protective role of NRF2/HO-1 in inflammatory diseases is well documented. Therefore, the NRF2 and HO-1 levels in nuclear extracts of the RAW 264.7 cells were determined using ELISA kits and expressed as fold changes with reference to the negative control. The effect of test compounds on NQO1 activity was determined using the reported method in murine hepatoma cells (Hepa-1c1c7). Dimethyl fumarate was used as a positive control, and 0.1% DMSO was used as a negative control. […] The CD value (concentration of test compound to double the NQO1 activity) of auranamide was 6.81 ± 0.18 μM, while for patriscabratine it was 4.28 ± 0.17 μM.
The “Prochaska” Microtiter Plate Bioassay was used to measure the NQO1 activity in hepatoma cells (Hepa-1c1c7). The cells (5 × 10^5 per well) were seeded and incubated with either auranamide or patriscabratine (10, 1, 0.1, 0.01, and 0.001 µM) or a reference drug (dimethyl fumarate, 10 μM) for 48 h. […] The protein concentration was determined using Bradford’s reagent. […] The optical density of the solution was determined at 610 nm using a Spectramax M3 microplate reader (Molecular Devices, LLC., San Jose, CA 95134, USA), and the values were normalized to the total protein content.

[3] = Metabolic stability in mouse liver microsomes; type: in vitro ADME; settings: 37 °C; for Clint: 0.5 µM; for half-life at 0.5 µM: read-out: Half-life (T1/2)
Protocol: as §8, §9

[4] = Metabolic stability in human liver microsomes; type: in vitro ADME; settings: 37 °C; for Clint: 0.5 µM; for half-life at 0.5 µM: read-out: Half-life (T1/2)
Protocol: as §8, §9

RAW264.7 cells = assay: MTT cytotoxicity on RAW264.7 cells; type: cell-based, murine; settings: MTT assay, 24 h, RAW 264.7 cells
Protocol: as §3

NF-κB p65 = NF-κB p65 ELISA, nuclear extract of LPSEc-stimulated RAW 264.7 cells; type: cell-based, murine; settings: 10 μM; LPSEc control 8.40 ± 0.09
Protocol: as §1, §4

O=C(N[C@@H](COC(=O)[C@H](Cc1ccccc1)NC(=O)c1ccccc1)Cc1ccccc1)c1ccccc1 [Auranamide]
IL-1β fold change (IL-1β): 2.05 ± 0.16 fold change
IFN-γ fold change (IFN-γ): 4.06 ± 0.19 fold change
concentrations found to be cytotoxic (Hepa-1c1c7 cells): higher than 10 µM
COX-2 fold change (COX-2): 2.53 ± 0.25 fold changes
reduced the NO production by [1]: 33.22%
IC50 [1]: 1220 ± 950 nM
TNF-α fold change (TNF-α): 2.42 ± 0.24 fold change
NRF2 upregulation (NRF2): 2.66 ± 0.16 fold
IL-6 fold change (IL-6): 2.85 ± 0.31 fold change
Clint [2]: 17.22 ± 0.46 mL/min/g liver
half-life at 0.5 µM [2]: 4.23 min
HO-1 upregulation (HO-1): 1.74 ± 0.09 fold
CD value (concentration of test compound to double the NQO1 activity) (NQO1): 6.81 ± 0.18 µM
Clint [3]: 16.18 ± 0.43 mL/min/g liver
half-life at 0.5 µM [3]: 4.5 min
Clint [4]: 10.18 ± 0.35 mL/min/g liver
half-life at 0.5 µM [4]: 7.14 min
concentrations found to be cytotoxic (RAW264.7 cells): higher than 10 µM
NF-κB p65 fold change (NF-κB p65): 2.13 ± 0.20 fold changes

CC(=O)NC(COC(=O)C(Cc1ccccc1)NC(=O)c1ccccc1)Cc1ccccc1 (centres unmarked) [Patriscabratine]
IL-1β fold change (IL-1β): 1.96 ± 0.12 fold change
IFN-γ fold change (IFN-γ): 4.15 ± 0.21 fold change
concentrations found to be cytotoxic (Hepa-1c1c7 cells): higher than 10 µM
COX-2 fold change (COX-2): 2.17 ± 0.31 fold changes
reduced the NO production by [1]: 30.84%
IC50 [1]: 1850 ± 930 nM
TNF-α fold change (TNF-α): 2.53 ± 0.18 fold change
NRF2 upregulation (NRF2): 2.37 ± 0.06 fold
IL-6 fold change (IL-6): 2.51 ± 0.38 fold change
Clint [2]: 18.53 ± 0.56 mL/min/g liver
half-life at 0.5 µM [2]: 3.93 min
HO-1 upregulation (HO-1): 1.83 ± 0.07 fold
CD value (concentration of test compound to double the NQO1 activity) (NQO1): 4.28 ± 0.17 µM
Clint [3]: 18.64 ± 0.51 mL/min/g liver
half-life at 0.5 µM [3]: 3.9 min
Clint [4]: 13.27 ± 0.42 mL/min/g liver
half-life at 0.5 µM [4]: 5.48 min
concentrations found to be cytotoxic (RAW264.7 cells): higher than 10 µM
NF-κB p65 fold change (NF-κB p65): 2.25 ± 0.27 fold changes
